Experimental data taken from the supplement of paper PMC10307832.

Legend:
Test in all cases: relative viability (nuclei count vs DMSO), 5 days (fraction); higher = more cells survive
[1] = compound: COC1=CC(c2cc3ccccc3[nH]2)=N/C1=C\c1[nH]c(C)cc1C [Obatoclax] + N=C(N)NC(=N)NCCc1ccccc1 [Phenformin] (partner 250 µM)
In short: (§1)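 Relative viability was taken as the ratio of nuclei in treated wells to nuclei in vehicle wells. Lung cancer cell lines in 1536-well plates received compounds by pin tool one day after seeding, either one drug alone or a fixed anchor-drug dose plus five library-drug doses (not always all listed) in √10 steps. Nuclei were counted on 4× images after 5 days of treatment, and values are medians of duplicate plates.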

[2] = compound: COC1=CC(c2cc3ccccc3[nH]2)=N/C1=C\c1[nH]c(C)cc1C [Obatoclax] + CC(=O)Nc1cccc(-n2c(=O)n(C3CC3)c(=O)c3c(Nc4ccc(I)cc4F)n(C)c(=O)c(C)c32)c1 [Trametinib] (partner 0.02 µM)
In short: as §1

[3] = compound: CC(C)C[C@H](NC(=O)[C@H](Cc1ccccc1)NC(=O)c1cnccn1)B(O)O [Bortezomib] + Cc1nc(NC(=O)N2CCC[C@H]2C(N)=O)sc1-c1ccnc(C(C)(C)C(F)(F)F)c1 [Alpelisib] (partner 2 µM)
In short: as §1

[4] = compound: CC(C)C[C@H](NC(=O)[C@H](Cc1ccccc1)NC(=O)c1cnccn1)B(O)O [Bortezomib] + C[C@@H](Oc1cc(-c2cnn(C3CCNCC3)c2)cnc1N)c1c(Cl)ccc(F)c1Cl [Crizotinib] (partner 1 µM)
In short: as §1

[5] = compound: COC1=CC(c2cc3ccccc3[nH]2)=N/C1=C\c1[nH]c(C)cc1C [Obatoclax] + O=C(CCCCCCC(=O)Nc1ccccc1)NO [Vorinostat] (partner 1 µM)
In short: as §1

NCI-H650 showed a relative viability ([1]; first compound 0.01 µM) of 0.454, a relative viability ([1]; first compound 0.03162 µM) of 0.395 and a relative viability ([1]; first compound 0.3162 µM) of 0.314. The relative viability ([1]; first compound 1 µM) was 0.288, the relative viability ([2]; first compound 0.01 µM) was 0.888 and the relative viability ([2]; first compound 0.03162 µM) was 1.02. The relative viability ([2]; first compound 0.3162 µM) was 0.373, the relative viability ([2]; first compound 1 µM) was 0.625 and the relative viability ([3]; first compound 0.000632 µM) was 1.18. For the same cell line, the relative viability ([3]; first compound 0.002 µM) was 0.819, the relative viability ([3]; first compound 0.006325 µM) was 0.355 and the relative viability ([3]; first compound 0.02 µM) was 0.182. For the same cell line, the relative viability ([4]; first compound 0.000632 µM) was 0.753, the relative viability ([4]; first compound 0.002 µM) was 0.584 and the relative viability ([4]; first compound 0.006325 µM) was 0.25. For the same cell line, the relative viability ([4]; first compound 0.02 µM) was 0.177, the relative viability ([5]; first compound 0.01 µM) was 0.439 and the relative viability ([5]; first compound 0.03162 µM) was 0.444. For the same cell line, the relative viability ([5]; first compound 0.3162 µM) was 0.418 and the relative viability ([5]; first compound 1 µM) was 0.384.
